Measurements reported in ChEMBL document CHEMBL5465560, “Selectivity Literature for EUbOPEN Chemogenomic Library” (2024).

How the values were obtained:
[1] = target: Calcium/calmodulin-dependent protein kinase kinase 1 (Homo sapiens) (UniProt Q8N5S9); experiment: Selectivity interaction (KinomeScan (DiscoverX)) EUB0000229b CAMKK1; details: at 10 µM
[2] = target: T1, Testis-specific serine/threonine-protein kinase 1 (Homo sapiens) (UniProt Q9BXA7); experiment: Selectivity interaction (ProQinase) EUB0000171b TSSK1A
T1 sequence (whole entry): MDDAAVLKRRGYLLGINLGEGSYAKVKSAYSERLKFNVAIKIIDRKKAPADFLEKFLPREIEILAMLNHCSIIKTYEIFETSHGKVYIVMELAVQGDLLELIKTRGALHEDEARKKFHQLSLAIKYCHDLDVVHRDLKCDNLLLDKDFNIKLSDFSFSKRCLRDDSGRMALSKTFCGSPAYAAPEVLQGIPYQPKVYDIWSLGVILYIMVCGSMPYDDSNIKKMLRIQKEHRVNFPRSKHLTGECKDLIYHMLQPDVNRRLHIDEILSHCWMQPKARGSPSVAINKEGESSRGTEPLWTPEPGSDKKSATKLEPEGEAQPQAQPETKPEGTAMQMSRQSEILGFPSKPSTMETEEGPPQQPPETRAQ

[3] = target: Calcium/calmodulin-dependent protein kinase kinase 2 (Homo sapiens) (UniProt Q96RR4); experiment: Selectivity interaction (Kinase panel (DSF assay)) EUB0001559a CAMKK2
[4] = target: STE20-like serine/threonine-protein kinase (Homo sapiens, UniProt Q9H2G2); experiment: Selectivity interaction (KinomeScan (DiscoverX)) EUB0001079a SLK; details: at 1 µM
[5] = target: E3 ubiquitin-protein ligase TRIM33 (Homo sapiens) (UniProt Q9UPN9); experiment: Selectivity interaction (Human bromodomain panel (DSF assay)) EUB0000233b TRIM33
[6] = target: Tyrosine-protein kinase ABL1 (Homo sapiens, UniProt P00519); experiment: Selectivity interaction (ActivX KiNativ screen (kinase selectivity in THP-1 cell lysates)) EUB0000639a ABL1; format: subcellular; details: lysate, at 0.04 µM
[7] = target: T2, Serine/threonine-protein kinase D3 (Homo sapiens) (UniProt O94806); experiment: Selectivity interaction (ActivX KiNativ screen (kinase selectivity in THP-1 cell lysates)) EUB0000639a PRKD3; format: subcellular; details: lysate
T2 sequence (whole entry): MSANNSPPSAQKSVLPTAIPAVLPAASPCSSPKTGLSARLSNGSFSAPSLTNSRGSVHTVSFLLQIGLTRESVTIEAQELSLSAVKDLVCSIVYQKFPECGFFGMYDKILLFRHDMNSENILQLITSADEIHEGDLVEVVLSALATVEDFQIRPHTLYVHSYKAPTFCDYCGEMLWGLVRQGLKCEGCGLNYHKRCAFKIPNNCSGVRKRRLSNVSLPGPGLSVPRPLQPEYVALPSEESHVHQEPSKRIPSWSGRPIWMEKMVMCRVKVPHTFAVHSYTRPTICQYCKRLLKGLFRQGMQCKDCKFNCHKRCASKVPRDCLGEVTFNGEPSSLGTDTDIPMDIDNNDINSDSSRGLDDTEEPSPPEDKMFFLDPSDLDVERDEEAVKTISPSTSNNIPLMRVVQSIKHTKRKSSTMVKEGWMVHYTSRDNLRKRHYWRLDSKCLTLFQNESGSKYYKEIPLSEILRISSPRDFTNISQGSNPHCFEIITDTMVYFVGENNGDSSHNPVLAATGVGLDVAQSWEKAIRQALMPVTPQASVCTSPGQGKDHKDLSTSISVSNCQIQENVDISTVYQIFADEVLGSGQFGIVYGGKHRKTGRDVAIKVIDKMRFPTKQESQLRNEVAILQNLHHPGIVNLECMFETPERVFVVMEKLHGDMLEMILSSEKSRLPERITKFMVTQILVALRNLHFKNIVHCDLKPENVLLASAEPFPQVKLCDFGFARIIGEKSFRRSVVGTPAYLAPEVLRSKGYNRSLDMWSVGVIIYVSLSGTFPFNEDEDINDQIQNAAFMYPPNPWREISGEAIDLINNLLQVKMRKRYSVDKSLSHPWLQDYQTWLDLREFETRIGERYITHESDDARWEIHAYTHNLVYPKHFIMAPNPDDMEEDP

[8] = target: T3, Inhibitor of nuclear factor kappa-B kinase subunit beta (Homo sapiens) (UniProt O14920); experiment: Selectivity interaction (KinomeScan (DiscoverX)) EUB0000045b IKBKB
T3 sequence (whole entry): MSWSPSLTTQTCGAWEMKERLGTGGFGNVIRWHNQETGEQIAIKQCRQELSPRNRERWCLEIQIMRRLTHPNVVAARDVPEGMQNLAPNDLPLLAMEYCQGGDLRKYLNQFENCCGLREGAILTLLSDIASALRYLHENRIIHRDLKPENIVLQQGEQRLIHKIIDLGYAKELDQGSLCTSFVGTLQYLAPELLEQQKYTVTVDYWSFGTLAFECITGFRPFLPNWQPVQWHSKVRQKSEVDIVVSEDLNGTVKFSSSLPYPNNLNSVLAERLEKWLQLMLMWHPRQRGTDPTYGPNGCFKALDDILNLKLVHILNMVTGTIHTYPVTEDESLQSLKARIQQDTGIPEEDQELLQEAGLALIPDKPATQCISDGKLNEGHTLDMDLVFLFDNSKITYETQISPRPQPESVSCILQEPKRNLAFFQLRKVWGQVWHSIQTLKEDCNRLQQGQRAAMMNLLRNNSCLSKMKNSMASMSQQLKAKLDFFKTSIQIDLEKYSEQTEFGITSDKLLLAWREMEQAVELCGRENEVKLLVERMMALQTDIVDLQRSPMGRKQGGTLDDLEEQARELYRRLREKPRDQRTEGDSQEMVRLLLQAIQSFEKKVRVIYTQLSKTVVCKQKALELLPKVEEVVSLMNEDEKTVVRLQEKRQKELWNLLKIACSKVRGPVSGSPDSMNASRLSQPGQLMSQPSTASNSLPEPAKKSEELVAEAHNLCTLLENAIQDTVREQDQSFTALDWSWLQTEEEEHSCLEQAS

[9] = target: Dual specificity protein kinase CLK2 (Homo sapiens, UniProt P49760); experiment: Selectivity interaction (KinomeScan (DiscoverX)) EUB0000618a CLK2; details: at 10 µM
[10] = target: MAP kinase-interacting serine/threonine-protein kinase 2 (Homo sapiens, UniProt Q9HBH9); experiment: Selectivity interaction (Ambit KINOMEscan and KiNATiv profiling in Jurkat cells) EUB0000090b MKNK2; format: cell-based; details: at 1 µM
MAP kinase-interacting serine/threonine-protein kinase 2, sequence (Q9HBH9 whole entry, looked up): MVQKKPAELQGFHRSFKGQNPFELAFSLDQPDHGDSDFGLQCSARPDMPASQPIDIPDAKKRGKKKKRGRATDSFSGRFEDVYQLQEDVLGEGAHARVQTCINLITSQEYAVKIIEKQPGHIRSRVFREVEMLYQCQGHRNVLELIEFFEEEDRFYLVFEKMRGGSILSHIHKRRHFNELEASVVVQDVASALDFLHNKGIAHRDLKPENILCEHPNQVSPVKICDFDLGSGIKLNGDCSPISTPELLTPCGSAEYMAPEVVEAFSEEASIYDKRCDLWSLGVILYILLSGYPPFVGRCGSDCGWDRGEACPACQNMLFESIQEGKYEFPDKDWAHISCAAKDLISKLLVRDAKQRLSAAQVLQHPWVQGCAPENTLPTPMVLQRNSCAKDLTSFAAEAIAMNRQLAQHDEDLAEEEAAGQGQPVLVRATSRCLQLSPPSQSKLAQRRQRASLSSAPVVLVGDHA

Dual specificity protein kinase CLK2, sequence (P49760 whole entry, looked up): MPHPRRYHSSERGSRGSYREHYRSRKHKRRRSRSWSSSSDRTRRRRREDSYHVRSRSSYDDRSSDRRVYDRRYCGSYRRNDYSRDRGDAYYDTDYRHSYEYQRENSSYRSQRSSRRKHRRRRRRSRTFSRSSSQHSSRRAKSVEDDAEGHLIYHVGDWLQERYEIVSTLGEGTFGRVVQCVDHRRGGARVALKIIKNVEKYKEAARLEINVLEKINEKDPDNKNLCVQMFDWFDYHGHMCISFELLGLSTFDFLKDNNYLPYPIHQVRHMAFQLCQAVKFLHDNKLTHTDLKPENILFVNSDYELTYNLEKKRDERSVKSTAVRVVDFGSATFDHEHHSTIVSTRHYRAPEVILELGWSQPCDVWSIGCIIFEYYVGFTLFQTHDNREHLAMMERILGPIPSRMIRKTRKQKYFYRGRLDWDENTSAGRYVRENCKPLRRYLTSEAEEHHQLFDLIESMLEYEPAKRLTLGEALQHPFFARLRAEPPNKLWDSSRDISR
E3 ubiquitin-protein ligase TRIM33 (Homo sapiens), sequence (Q9UPN9 whole entry): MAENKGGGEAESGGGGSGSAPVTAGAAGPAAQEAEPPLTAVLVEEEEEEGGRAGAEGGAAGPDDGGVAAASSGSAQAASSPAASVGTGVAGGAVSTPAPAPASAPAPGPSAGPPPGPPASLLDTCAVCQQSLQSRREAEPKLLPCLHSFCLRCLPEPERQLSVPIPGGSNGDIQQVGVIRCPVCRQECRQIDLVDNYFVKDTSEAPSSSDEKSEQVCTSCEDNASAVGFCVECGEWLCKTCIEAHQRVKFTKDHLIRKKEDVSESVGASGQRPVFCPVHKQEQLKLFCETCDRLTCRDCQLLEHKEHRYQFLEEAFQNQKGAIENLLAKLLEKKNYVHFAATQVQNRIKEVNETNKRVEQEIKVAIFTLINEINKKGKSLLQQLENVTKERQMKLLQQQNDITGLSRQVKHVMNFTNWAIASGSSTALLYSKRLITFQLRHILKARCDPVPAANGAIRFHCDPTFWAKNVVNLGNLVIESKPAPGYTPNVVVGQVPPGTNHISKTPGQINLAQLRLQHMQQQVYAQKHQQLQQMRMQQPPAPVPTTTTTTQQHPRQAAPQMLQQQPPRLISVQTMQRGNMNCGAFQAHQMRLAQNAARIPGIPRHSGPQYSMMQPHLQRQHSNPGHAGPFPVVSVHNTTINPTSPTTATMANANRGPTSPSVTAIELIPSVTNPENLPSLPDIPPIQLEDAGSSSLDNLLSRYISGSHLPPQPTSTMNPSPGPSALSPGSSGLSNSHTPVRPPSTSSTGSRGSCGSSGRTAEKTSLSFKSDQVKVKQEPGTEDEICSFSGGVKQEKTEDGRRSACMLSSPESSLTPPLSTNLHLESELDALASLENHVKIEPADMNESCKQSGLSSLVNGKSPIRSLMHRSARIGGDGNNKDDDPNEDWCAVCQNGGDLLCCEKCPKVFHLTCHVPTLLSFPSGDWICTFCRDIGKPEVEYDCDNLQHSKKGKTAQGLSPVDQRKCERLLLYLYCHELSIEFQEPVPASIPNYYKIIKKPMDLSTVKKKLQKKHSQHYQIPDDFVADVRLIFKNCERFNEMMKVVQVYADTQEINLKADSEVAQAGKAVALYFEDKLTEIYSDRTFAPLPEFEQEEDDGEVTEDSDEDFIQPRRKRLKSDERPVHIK
STE20-like serine/threonine-protein kinase, sequence (Q9H2G2 whole entry, looked up): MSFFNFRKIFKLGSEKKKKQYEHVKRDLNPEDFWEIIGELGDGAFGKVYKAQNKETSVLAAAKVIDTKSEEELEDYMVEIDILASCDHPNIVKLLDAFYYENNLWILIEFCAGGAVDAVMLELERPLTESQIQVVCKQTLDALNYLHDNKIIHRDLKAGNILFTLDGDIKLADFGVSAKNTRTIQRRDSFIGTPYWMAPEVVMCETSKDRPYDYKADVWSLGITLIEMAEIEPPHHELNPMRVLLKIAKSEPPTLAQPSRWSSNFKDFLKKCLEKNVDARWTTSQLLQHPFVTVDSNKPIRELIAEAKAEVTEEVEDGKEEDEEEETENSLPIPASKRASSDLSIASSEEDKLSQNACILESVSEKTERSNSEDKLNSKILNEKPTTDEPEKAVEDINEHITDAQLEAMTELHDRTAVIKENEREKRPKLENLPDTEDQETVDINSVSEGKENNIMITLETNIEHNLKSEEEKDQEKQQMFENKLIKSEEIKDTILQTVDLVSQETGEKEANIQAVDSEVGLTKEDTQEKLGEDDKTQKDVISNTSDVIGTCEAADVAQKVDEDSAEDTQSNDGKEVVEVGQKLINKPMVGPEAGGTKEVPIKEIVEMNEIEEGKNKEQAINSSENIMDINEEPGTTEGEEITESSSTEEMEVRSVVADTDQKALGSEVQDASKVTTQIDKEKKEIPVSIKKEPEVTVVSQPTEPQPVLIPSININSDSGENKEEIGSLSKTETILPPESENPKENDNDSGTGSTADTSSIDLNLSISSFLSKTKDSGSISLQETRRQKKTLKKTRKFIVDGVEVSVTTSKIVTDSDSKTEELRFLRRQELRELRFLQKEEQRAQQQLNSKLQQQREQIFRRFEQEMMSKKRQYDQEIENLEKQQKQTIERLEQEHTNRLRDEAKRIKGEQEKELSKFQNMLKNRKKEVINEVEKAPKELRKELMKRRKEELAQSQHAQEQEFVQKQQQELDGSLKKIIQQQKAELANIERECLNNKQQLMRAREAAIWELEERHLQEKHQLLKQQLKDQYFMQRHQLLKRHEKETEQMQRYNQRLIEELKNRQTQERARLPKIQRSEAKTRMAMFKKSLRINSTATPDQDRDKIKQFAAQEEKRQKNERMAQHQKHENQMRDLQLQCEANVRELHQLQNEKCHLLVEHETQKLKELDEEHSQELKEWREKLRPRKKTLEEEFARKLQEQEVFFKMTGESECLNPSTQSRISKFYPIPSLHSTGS
Tyrosine-protein kinase ABL1, sequence (P00519 whole entry): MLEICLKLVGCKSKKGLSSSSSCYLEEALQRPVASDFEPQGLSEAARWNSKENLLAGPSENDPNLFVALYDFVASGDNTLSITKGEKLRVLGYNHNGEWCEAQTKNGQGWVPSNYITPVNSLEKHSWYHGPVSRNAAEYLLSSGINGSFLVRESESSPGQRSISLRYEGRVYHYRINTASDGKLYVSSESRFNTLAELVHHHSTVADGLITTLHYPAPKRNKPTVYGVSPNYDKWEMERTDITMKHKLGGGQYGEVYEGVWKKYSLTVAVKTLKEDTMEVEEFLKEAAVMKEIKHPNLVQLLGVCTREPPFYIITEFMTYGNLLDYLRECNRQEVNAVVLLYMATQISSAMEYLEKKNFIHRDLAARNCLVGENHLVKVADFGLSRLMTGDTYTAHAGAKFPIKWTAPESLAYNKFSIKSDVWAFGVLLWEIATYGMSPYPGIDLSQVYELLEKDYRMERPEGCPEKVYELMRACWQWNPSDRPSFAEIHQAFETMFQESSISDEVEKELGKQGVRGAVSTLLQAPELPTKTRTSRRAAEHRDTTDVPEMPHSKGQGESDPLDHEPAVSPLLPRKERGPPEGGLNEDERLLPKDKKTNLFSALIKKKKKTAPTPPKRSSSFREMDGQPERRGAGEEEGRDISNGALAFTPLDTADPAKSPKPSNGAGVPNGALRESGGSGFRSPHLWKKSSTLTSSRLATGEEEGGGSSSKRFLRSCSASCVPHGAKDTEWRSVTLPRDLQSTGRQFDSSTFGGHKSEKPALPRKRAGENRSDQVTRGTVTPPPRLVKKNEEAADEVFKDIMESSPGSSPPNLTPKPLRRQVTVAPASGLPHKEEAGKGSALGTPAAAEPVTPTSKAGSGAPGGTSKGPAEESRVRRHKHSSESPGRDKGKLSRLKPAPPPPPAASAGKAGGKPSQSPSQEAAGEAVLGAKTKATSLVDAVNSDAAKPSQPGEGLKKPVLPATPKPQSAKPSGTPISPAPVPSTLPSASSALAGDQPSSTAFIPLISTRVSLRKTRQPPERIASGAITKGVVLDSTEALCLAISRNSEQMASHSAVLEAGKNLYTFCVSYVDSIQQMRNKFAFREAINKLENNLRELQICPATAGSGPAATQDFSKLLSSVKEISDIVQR
Calcium/calmodulin-dependent protein kinase kinase 2 (Homo sapiens), sequence (Q96RR4 2-588 limits assumed): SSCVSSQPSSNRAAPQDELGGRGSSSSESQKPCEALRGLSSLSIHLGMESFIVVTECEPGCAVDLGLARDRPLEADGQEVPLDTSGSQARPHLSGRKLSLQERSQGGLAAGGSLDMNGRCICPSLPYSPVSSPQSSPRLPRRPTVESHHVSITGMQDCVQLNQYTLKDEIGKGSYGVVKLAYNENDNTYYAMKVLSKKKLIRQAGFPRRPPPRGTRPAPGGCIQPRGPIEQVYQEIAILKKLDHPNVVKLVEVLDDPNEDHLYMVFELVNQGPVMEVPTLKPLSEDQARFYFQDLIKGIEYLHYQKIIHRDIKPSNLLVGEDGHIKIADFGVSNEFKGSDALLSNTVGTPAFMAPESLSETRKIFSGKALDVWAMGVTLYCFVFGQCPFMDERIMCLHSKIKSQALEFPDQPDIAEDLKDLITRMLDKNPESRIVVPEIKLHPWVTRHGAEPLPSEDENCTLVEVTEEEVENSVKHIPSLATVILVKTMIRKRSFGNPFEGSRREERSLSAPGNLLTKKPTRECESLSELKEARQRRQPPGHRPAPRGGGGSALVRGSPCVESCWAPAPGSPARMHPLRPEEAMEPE

Compound: COc1cc(N(C)c2ccnc3ccc(C(F)(F)F)cc23)cc(OC)c1OC
- % binding [1]: 97%

Compound: C=CC(=O)Nc1cccc(C(=O)Nc2ccc(Nc3cc(-c4[nH]c(SC)nc4C)ccn3)cc2)c1
- % of control ([2]; at 1 µM): 76%
- % of control ([2]; at 5 µM): 72%

Compound: CN(C(=O)c1cnn2cccnc12)c1cc2c(cc1N1CCOCC1)C(=O)N(C[C@@H](F)C(C)(C)O)C2
- dTM [3]: 1.1 K

Compound: Nc1cnc(N2CCc3cc(S(=O)(=O)Nc4c(F)cc(Cl)cc4F)cc(N4CCCC4=O)c32)nc1 [TP-020n]
- % of control [4]: 100%

Compound: CN(C)CCCOc1ccc(-c2cc(NCCCn3cccn3)nc(S(C)(=O)=O)n2)cc1
- dTM [5]: < 2 K

Compound: CC[C@@H]1[C@H](F)C(=O)N[C@@H]1COc1nccc2cc(C(N)=O)c(OC)cc12 [ZIMLOVISERTIB]
- % of inhibition [6]: -16.4%
- % of inhibition ([7]; at 0.01 µM): -8.3%
- % of inhibition ([7]; at 0.04 µM): -5.9%
- % of inhibition ([7]; at 0.2 µM): -13.7%
- % of inhibition ([7]; at 1 µM): 3.6%
- % of inhibition ([7]; at 5 µM): -22.1%

Compound: C=CC(=O)Nc1cc(-n2c(=O)ccc3cnc4ccc(-c5ccc(NS(C)(=O)=O)cc5)cc4c32)ccc1C
- % of control ([8]; at 1 µM): 93%
- % of control ([8]; at 10 µM): 100%

Compound: O[C@H]1CC[C@H](Nc2ncc3nc(Nc4c(F)cc(F)cc4F)n([C@H]4CCOC4)c3n2)CC1
- % of control [9]: 7.7%

Compound: CN(C)C/C=C/C(=O)Nc1ccc(C(=O)N2CCCC(Nc3ncc(Cl)c(-c4c[nH]c5ccccc45)n3)C2)cc1 (stereo unspecified)
- % of control [10]: 88%
